For series [1], the system named is integrase. Nature of the series: Integrase test. It is filed as biochemical.
For series [2], the target named is HCV ATPase (Hepatitis C virus genotype 1a, UniProt P27958). Nature of the series: ATPase analysis of HCV NTPase/helicase. Format: biochemical.
The subject of series [3] is HCV replicon in Huh7 ET (luc-ubi-neo/ET) cell line. Nature of the series: HCV replicon assay (luciferase based), antiviral activity. It is filed as cell-based, Hepatitis C Virus. Also noted: SI50: unit not given here. Conditions: for EC50: Hepatitis C virus, Huh7 ET; for SI50: selectivity index, luciferase based replicon assay; for activity against HCV in replicon assay (in words): whole cells. An excerpt: (§1) To determine if the compounds are active in whole cells, they were screened using an HCV replicon assay. […] Compound 2b also has similar selectivity towards HCV as human interferon alpha-2b (rIFNa-2b), the positive control.
In the replicon assays a Huh7 ET (luc-ubi-neo/ET) cell line is used. This particular construct contain the 5′NTR (IRES) of HCV, producing a firefly luciferase (luc), ubiquitin (ubiq) and neomycin phosphotranferase (neo) fusion protein. This modification makes the cell line more robust and provides the additional stability needed for antiviral screening. […]

For series [4], the target named is T1, HCV NTPase/helicase (Hepatitis C virus genotype 1a, UniProt P27958). Nature of the series: NTPase/Helicase assay, HCV helicase, RNA substrate. It is filed as biochemical. Here is the method: NTPase/Helicase activity determined by a previously described method. […] The substrate and released strand were separated in TBE polyacrylamide gel and visualized by exposition of dried gel onto X-ray film for 20 h. The part of the gels corresponding to the released strand were excised, and the ^32P radioactivity was quantified.

For series [5], the target named is T1, HCV NTPase/helicase. Nature of the series: NTPase/Helicase assay, HCV helicase, DNA substrate. Format: biochemical. Conditions: for inhibition of NTPase/helicase of HCV (in words) / IC50: DNA substrate. Here is the method: Inhibitory activity of HCV was measured using a DNA substrate.
NTPase/Helicase activity determined by a previously described method. Helicase activity was determined as a function of increasing concentrations of the compounds in the presence of ATP adjusted to 105 μM, 235 μM, for HCV, JEV, and DENV NTPase/Helicase, respectively and […] of DNA substrate (concentration of nucleotide base). The substrate and released strand were separated in TBE polyacrylamide gel and visualized by exposition of dried gel onto X-ray film for 20 h. The part of the gels corresponding to the released strand were excised, and the ^32P radioactivity was quantified.

For series [6], the system named is Huh7 ET (luc-ubi-neo/ET) cell line. Nature of the series: HCV replicon assay (luciferase based), cytotoxicity. Format: cell-based. Conditions: cytotoxicity in luciferase based replicon assay, high test conc 20 μM (rIFNa-2b 2).
From the text: as §1
In the replicon assays a Huh7 ET (luc-ubi-neo/ET) cell line is used. This particular construct contain the 5′NTR (IRES) of HCV, producing a firefly luciferase (luc), ubiquitin (ubiq) and neomycin phosphotranferase (neo) fusion protein. This modification makes the cell line more robust and provides the additional stability needed for antiviral screening. The effects of the drug were examined in triplicate at a single high-test concentration of 20 μM on HCV RNA-derived LUC activity and cytotoxicity.
(Replicon systems follow genome replication, usually without infectious particles.)

Series [7] relates to HCV. Nature of the series: RNA based confirmatory assay, antiviral activity. The settings on record: for EC50: Hepatitis C virus; for SI50: selectivity index, RNA based confirmatory assay. Also noted: SI50: unit not given here. It is filed as cell-based, Hepatitis C Virus.
Series [8] can be described thus: RNA based confirmatory assay, cytotoxicity. The settings on record: cytotoxicity in RNA based confirmatory assay; high test conc 20 μM (rIFNa-2b 2). It is filed as cell-based.
The mark [9] stands for this setting: HCV Helicase (IC50) RNA, in brackets, molar value in brackets.
[10] abbreviates: HCV Helicase (IC50) DNA, in brackets, molar value in brackets.
[11] abbreviates: read-out: HCV Helicase (IC50) RNA.
The mark [12] stands for this setting: read-out: HCV Helicase (IC50) DNA (converted).

“Also recorded” adds a separate entry of the source. Where two headings read alike, the source gives them in different places. Bounds are passed on as bounds.

Sequence of HCV ATPase (P27958 1027-1657): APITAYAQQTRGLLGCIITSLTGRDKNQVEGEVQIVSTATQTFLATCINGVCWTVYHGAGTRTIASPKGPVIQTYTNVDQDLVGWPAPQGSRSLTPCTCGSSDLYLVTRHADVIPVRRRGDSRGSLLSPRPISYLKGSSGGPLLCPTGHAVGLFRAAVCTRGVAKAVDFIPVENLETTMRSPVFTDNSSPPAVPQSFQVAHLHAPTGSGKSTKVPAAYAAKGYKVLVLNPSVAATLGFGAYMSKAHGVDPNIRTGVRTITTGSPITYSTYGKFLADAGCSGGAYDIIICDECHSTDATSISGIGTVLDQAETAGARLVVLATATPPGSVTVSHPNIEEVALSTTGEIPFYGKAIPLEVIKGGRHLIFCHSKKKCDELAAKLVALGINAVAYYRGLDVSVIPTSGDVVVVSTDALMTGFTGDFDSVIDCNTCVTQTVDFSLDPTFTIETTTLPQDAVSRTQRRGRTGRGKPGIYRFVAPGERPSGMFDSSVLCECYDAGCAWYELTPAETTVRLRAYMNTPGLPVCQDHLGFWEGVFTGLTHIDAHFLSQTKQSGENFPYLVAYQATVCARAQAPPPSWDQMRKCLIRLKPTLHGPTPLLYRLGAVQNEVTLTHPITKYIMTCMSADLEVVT
T1 sequence (P27958 1027-1657): as above

Compound `COC(=O)c1cccc2oc(-c3ccc4c(OCc5ccccc5)cccc4c3O)nc12` [Compound 2a, 2-(5-Benzyloxy-1-hydroxy-naphthalene-2-yl)-benzoxazole-4-carboxylic Acid Methyl Ester] registered a melting point of 183.5 to 185 °C. Further, in [1], the activity against integrase entry was “inactive”. Besides, in series [2], the IC50 was over 1180 µM. Further, in series [3], the half-maximal effective concentration (EC50) was determined as 1.13 µM and the SI50 is reported as over 17.7. Besides, the “inhibition of HCV helicase with RNA substrate (in words)” value (shortened to “inhibition of HCV helicase”) in [4] is recorded as “inhibitory”. In [4] (HCV Helicase (IC50) RNA), this compound gave an IC50 of 20.4 µM. The compound also came in with a half-inhibitory concentration (IC50) in [4] (setting [9]) of 20 µM. In addition, in [5], the “inhibition of NTPase/helicase of HCV (in words)” value was “inhibit”. In addition, half-maximal inhibition in [5] (HCV Helicase (IC50) DNA) (IC50) required 3.76 µM. The compound also came in with an IC50 in series [5] (setting [10]) of 3.8 µM. In [6], this compound displayed a half-inhibitory concentration (IC50) of over 20 µM.
On to `COC(=O)c1cccc2oc(-c3cccc4oc(-c5ccccc5O)nc34)nc12` [Compound 1, UK-1], for which the 50% effective concentration (EC50) in series [7] amounted to 0.72 µM; in [3] it was 0.21 µM. Besides, the half-inhibitory concentration (IC50) in series [2] (read-out: ATPase (IC50)) is over 1290 µM; in series [8], over 20 µM; in series [4] (setting [11]) it was over 1290 µM; in series [5] (setting [12]) it was 378 µM; in [6], 11.6 µM. Also, the “activity against HCV in replicon assay (in words)” value (“activity against HCV” below) in [3] is given as “still active against HCV”. In addition, in [5], the “activity in HCV NTPase/helicase assay (in words)” value was “inactive; also recorded: did not show any activity”. For the same compound, in series [5], the “inhibition of NTPase/helicase of HCV (in words)” value is recorded as “inhibit”.
For `COC(=O)c1cccc2oc(-c3ccc4ccc(OCc5ccccc5)cc4c3O)nc12` [Compound 2b, 2-(7-benzyloxy-1-hydroxy-napthalen-2-yl)-benzoxazole-4 Carboxylic Acid Methyl Ester], the activity against integrase result in [1] is “inactive”. The half-maximal inhibitory concentration (IC50) in series [2] was over 1180 µM; in [4] (HCV Helicase (IC50) RNA) it was 19.7 µM; in [4] (setting [9]) it was 20 µM; in [5] (HCV Helicase (IC50) DNA), 2.59 µM; in [5] (setting [10]), 2.6 µM; in series [6], over 20 µM. Further, the midpoint of the response in [3], the EC50, lay at 0.47 µM. This compound returned an SI50 in series [3] of over 42.6. The “inhibition of HCV helicase” value in [4] is given as “inhibitory”. Also, the “inhibition of NTPase/helicase of HCV (in words)” value in series [5] is recorded as “inhibit”.
As for `COC(=O)c1cccc2oc(-c3ccc4ccccc4c3O)nc12` [Compound 6, 2-(1-Hydroxy-naphthalen-2-yl)benzoxazole-4-carboxylic Acid Methyl Ester], the activity against integrase entry in [1] was “inactive”. For the same compound, the EC50 was determined as 1.32 µM in series [7] and 0.21 µM in [3]. The SI50 is over 1.27 in [7] and 7.67 in series [3]. The concentration for half-maximal inhibition (IC50) is over 1570 µM in series [2]; 1.68 µM in [8]; 592 µM in series [4] (HCV Helicase (IC50) RNA); 591 µM in series [4] (setting [9]); 539 µM in [5] (HCV Helicase (IC50) DNA); 539 µM in [5] (setting [10]). In [6], this compound gave a 50% inhibitory concentration (IC50) of 1.61 µM. Further, the “inhibition of HCV helicase” value in [4] was “inhibitory”. In addition, the “inhibition of NTPase/helicase of HCV (in words)” value in [5] is reported as “inhibit”.
With `COC(=O)c1cccc2oc(-c3ccccc3O)nc12` [Compound 8], the EC50 in series [7] stood at 0.58 µM; in [3] it was 0.32 µM. For the same compound, the SI50 in series [7] is recorded as over 8.93; in series [3] it was 16.2. Besides, the concentration for half-maximal inhibition (IC50) in [2] (read-out: ATPase (IC50)) is over 1860 µM; in [8] it was 5.18 µM; in [4] (setting [11]), over 1860 µM; in series [5] (setting [12]), over 1860 µM; in [6], 5.2 µM. Besides, the “activity against HCV” value in [3] is “still active against HCV”. In addition, in series [5], the “activity in HCV NTPase/helicase assay (in words)” value was “inactive; also recorded: did not show any activity”.
Consider `CNC(=O)c1cccc2oc(-c3ccccc3O)nc12` [Compound 10], for which the IC50 in series [2] (read-out: ATPase (IC50)) is over 1860 µM; in series [4] (setting [11]) it was over 1860 µM; in [5] (setting [12]), over 1860 µM; in series [6] it was 6.32 µM. The EC50 in [3] was 1.41 µM. In series [3], this compound displayed an SI50 of 4.5. The “activity against HCV” value in series [3] is “still active against HCV”. The “activity in HCV NTPase/helicase assay (in words)” value in [5] is “inactive; also recorded: did not show any activity”.
Consider `O=C(O)c1cccc2oc(-c3ccccc3O)nc12` [Compound 9], for which the IC50 in series [2] (read-out: ATPase (IC50)) was over 1960 µM; in [4] (setting [11]) it was over 1960 µM; in [5] (setting [12]) it was over 1960 µM; in series [6], 3.51 µM. Moreover, in series [3], the 50% effective concentration (EC50) was found to be 0.21 µM. This compound also returned an SI50 in series [3] of 16.7. Also, the “activity against HCV” value in [3] was “still active against HCV”. The “activity in HCV NTPase/helicase assay (in words)” value in series [5] was “inactive; also recorded: did not show any activity”.

Broadly, the IC50 is the concentration that inhibits the measured activity by half. Usually EC50 stands for the concentration needed to bring the measured effect to its halfway point. As a reminder, the melting point is the temperature of the solid-liquid transition.
